Reference: PubChem BioAssay (NCI)
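How tested: cells in 96-well plates exposed to compound for 48 hours at five concentrations. GI50 = concentration required for 50% inhibition of growth. TGI: total growth inhibition.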

Columns and labels:
Experiment in all cases: NCI anticancer screen, dose series, 48 h
786-0 renal = system: 786-0 renal
A498 renal = system: A498 renal
A549 NSCLC = system: A549 NSCLC
ACHN renal = system: ACHN renal
BT-549 breast = system: BT-549 breast
CAKI-1 renal = system: CAKI-1 renal
CCRF-CEM leukemia = system: CCRF-CEM leukemia
COLO 205 colon = system: COLO 205 colon
DU-145 prostate = system: DU-145 prostate
EKVX NSCLC = system: EKVX NSCLC
HCC-2998 colon = system: HCC-2998 colon
HCT-116 colon = system: HCT-116 colon
HCT-15 colon = system: HCT-15 colon
HL-60(TB) leukemia = system: HL-60(TB) leukemia
HOP-62 NSCLC = system: HOP-62 NSCLC
HOP-92 NSCLC = system: HOP-92 NSCLC
HS 578T breast = system: HS 578T breast
HT29 colon = system: HT29 colon
IGROV1 ovarian = system: IGROV1 ovarian
K-562 leukemia = system: K-562 leukemia
KM12 colon = system: KM12 colon
LOX IMVI melanoma = system: LOX IMVI melanoma
M14 melanoma = system: M14 melanoma
MALME-3M melanoma = system: MALME-3M melanoma
MCF7 breast = system: MCF7 breast
MDA-MB-231 breast = system: MDA-MB-231 breast
MDA-MB-435 = system: MDA-MB-435
MOLT-4 leukemia = system: MOLT-4 leukemia
NCI-H226 lung = system: NCI-H226 lung
NCI-H23 lung = system: NCI-H23 lung
NCI-H460 lung = system: NCI-H460 lung
NCI-H522 lung = system: NCI-H522 lung
NCI/ADR-RES ovarian = system: NCI/ADR-RES ovarian
OVCAR-3 ovarian = system: OVCAR-3 ovarian
OVCAR-4 ovarian = system: OVCAR-4 ovarian
OVCAR-5 ovarian = system: OVCAR-5 ovarian
OVCAR-8 ovarian = system: OVCAR-8 ovarian
PC-3 prostate = system: PC-3 prostate
RPMI-8226 leukemia = system: RPMI-8226 leukemia
RXF 393 renal = system: RXF 393 renal
SF-268 CNS = system: SF-268 CNS
SF-295 CNS = system: SF-295 CNS
SF-539 CNS = system: SF-539 CNS
SK-MEL-2 melanoma = system: SK-MEL-2 melanoma
SK-MEL-28 melanoma = system: SK-MEL-28 melanoma
SK-MEL-5 melanoma = system: SK-MEL-5 melanoma
SK-OV-3 ovarian = system: SK-OV-3 ovarian
SN12C renal = system: SN12C renal
SNB-19 CNS = system: SNB-19 CNS
SNB-75 CNS = system: SNB-75 CNS
SR leukemia = system: SR leukemia
SW-620 colon = system: SW-620 colon
T-47D breast = system: T-47D breast
TK-10 renal = system: TK-10 renal
U251 CNS = system: U251 CNS
UACC-257 melanoma = system: UACC-257 melanoma
UACC-62 melanoma = system: UACC-62 melanoma
UO-31 renal = system: UO-31 renal

SMILES: COc1cc2cc(C(=O)Nc3ccccc3)c(N)nc2cc1OC
- GI50 (786-0 renal): 31.7 µM
- TGI (786-0 renal): > 100 µM
- GI50 (A498 renal): 4.7 µM
- TGI (A498 renal): 30.9 µM
- GI50 (A549 NSCLC): 63.1 µM
- TGI (A549 NSCLC): > 100 µM
- GI50 (ACHN renal): 39.4 µM
- TGI (ACHN renal): > 100 µM
- GI50 (BT-549 breast): 25.1 µM
- TGI (BT-549 breast): > 100 µM
- GI50 (CAKI-1 renal): 34.5 µM
- TGI (CAKI-1 renal): > 100 µM
- GI50 (CCRF-CEM leukemia): 35.9 µM
- TGI (CCRF-CEM leukemia): > 100 µM
- GI50 (COLO 205 colon): 34 µM
- TGI (COLO 205 colon): > 100 µM
- GI50 (DU-145 prostate): 80.3 µM
- TGI (DU-145 prostate): > 100 µM
- GI50 (EKVX NSCLC): 73.6 µM
- TGI (EKVX NSCLC): > 100 µM
- GI50 (HCC-2998 colon): 94.4 µM
- TGI (HCC-2998 colon): > 100 µM
- GI50 (HCT-116 colon): 40.4 µM
- TGI (HCT-116 colon): > 100 µM
- GI50 (HCT-15 colon): 31.3 µM
- TGI (HCT-15 colon): > 100 µM
- GI50 (HL-60(TB) leukemia): 43.6 µM
- TGI (HL-60(TB) leukemia): > 100 µM
- GI50 (HOP-62 NSCLC): 62.6 µM
- TGI (HOP-62 NSCLC): > 100 µM
- GI50 (HOP-92 NSCLC): 8.29 µM
- TGI (HOP-92 NSCLC): 90.1 µM
- GI50 (HS 578T breast): 62.8 µM
- TGI (HS 578T breast): > 100 µM
- GI50 (HT29 colon): 51.5 µM
- TGI (HT29 colon): > 100 µM
- GI50 (IGROV1 ovarian): 56.3 µM
- TGI (IGROV1 ovarian): > 100 µM
- GI50 (K-562 leukemia): 41.7 µM
- TGI (K-562 leukemia): > 100 µM
- GI50 (KM12 colon): 46 µM
- TGI (KM12 colon): > 100 µM
- GI50 (LOX IMVI melanoma): 42.3 µM
- TGI (LOX IMVI melanoma): > 100 µM
- GI50 (M14 melanoma): 33.1 µM
- TGI (M14 melanoma): > 100 µM
- GI50 (MALME-3M melanoma): 44.3 µM
- TGI (MALME-3M melanoma): > 100 µM
- GI50 (MCF7 breast): 48.8 µM
- TGI (MCF7 breast): > 100 µM
- GI50 (MDA-MB-231 breast): 59.6 µM
- TGI (MDA-MB-231 breast): > 100 µM
- GI50 (MDA-MB-435): 48.7 µM
- TGI (MDA-MB-435): > 100 µM
- GI50 (MOLT-4 leukemia): 38.5 µM
- TGI (MOLT-4 leukemia): > 100 µM
- GI50 (NCI-H226 lung): 54.4 µM
- TGI (NCI-H226 lung): > 100 µM
- GI50 (NCI-H23 lung): 73.9 µM
- TGI (NCI-H23 lung): > 100 µM
- GI50 (NCI-H460 lung): 73.9 µM
- TGI (NCI-H460 lung): > 100 µM
- GI50 (NCI-H522 lung): 32.7 µM
- TGI (NCI-H522 lung): > 100 µM
- GI50 (NCI/ADR-RES ovarian): 28.4 µM
- TGI (NCI/ADR-RES ovarian): > 100 µM
- GI50 (OVCAR-3 ovarian): 50.9 µM
- TGI (OVCAR-3 ovarian): > 100 µM
- GI50 (OVCAR-4 ovarian): 29.8 µM
- TGI (OVCAR-4 ovarian): > 100 µM
- GI50 (OVCAR-5 ovarian): > 100 µM
- TGI (OVCAR-5 ovarian): > 100 µM
- GI50 (OVCAR-8 ovarian): 33.5 µM
- TGI (OVCAR-8 ovarian): > 100 µM
- GI50 (PC-3 prostate): 31.2 µM
- TGI (PC-3 prostate): > 100 µM
- GI50 (RPMI-8226 leukemia): 28.3 µM
- TGI (RPMI-8226 leukemia): > 100 µM
- GI50 (RXF 393 renal): 23.7 µM
- TGI (RXF 393 renal): > 100 µM
- GI50 (SF-268 CNS): 81.8 µM
- TGI (SF-268 CNS): > 100 µM
- GI50 (SF-295 CNS): 46.7 µM
- TGI (SF-295 CNS): > 100 µM
- GI50 (SF-539 CNS): 71.6 µM
- TGI (SF-539 CNS): > 100 µM
- GI50 (SK-MEL-2 melanoma): 69.1 µM
- TGI (SK-MEL-2 melanoma): > 100 µM
- GI50 (SK-MEL-28 melanoma): 75.4 µM
- TGI (SK-MEL-28 melanoma): > 100 µM
- GI50 (SK-MEL-5 melanoma): 22.8 µM
- TGI (SK-MEL-5 melanoma): 88.8 µM
- GI50 (SK-OV-3 ovarian): > 100 µM
- TGI (SK-OV-3 ovarian): > 100 µM
- GI50 (SN12C renal): 53.8 µM
- TGI (SN12C renal): > 100 µM
- GI50 (SNB-19 CNS): > 100 µM
- TGI (SNB-19 CNS): > 100 µM
- GI50 (SNB-75 CNS): 29.2 µM
- TGI (SNB-75 CNS): > 100 µM
- GI50 (SR leukemia): 33.9 µM
- TGI (SR leukemia): > 100 µM
- GI50 (SW-620 colon): > 100 µM
- TGI (SW-620 colon): > 100 µM
- GI50 (T-47D breast): 23.6 µM
- TGI (T-47D breast): > 100 µM
- GI50 (TK-10 renal): 63.5 µM
- TGI (TK-10 renal): > 100 µM
- GI50 (U251 CNS): 43.1 µM
- TGI (U251 CNS): > 100 µM
- GI50 (UACC-257 melanoma): 39.4 µM
- TGI (UACC-257 melanoma): > 100 µM
- GI50 (UACC-62 melanoma): 28.6 µM
- TGI (UACC-62 melanoma): > 100 µM
- GI50 (UO-31 renal): 25.7 µM
- TGI (UO-31 renal): > 100 µM
